Measured values published in the supplement of paper PMC10721915.
± gives the standard deviation of the averaged measurements.

Compound: COc1ccc([C@@H](O)c2cc(-c3ncnc4cc(N5CCOCC5)ccc34)c(F)cc2Cl)nn1 [peposertib]
Assay: relative cell growth vs untreated control (GI, NCI-DTP normalisation with time-zero) (fraction of control growth); higher = more growth / less inhibition
Settings: treatment time: 120 h
Method: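 Cancer cell lines were treated with peposertib (DNA-PK inhibitor) combined with gamma ionizing radiation (0, 2, 3 or 6 Gy) for 120 h, starting 48 h after seeding. Read-out was sulforhodamine B total-protein staining, normalised to untreated control and time-zero wells (NCI-DTP GI convention).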

[1] = peposertib concentration 0.00488 µM, gamma irradiation dose (Gy): 0
[2] = peposertib concentration 0.0195 µM, gamma irradiation dose (Gy): 0
[3] = peposertib concentration 0.0781 µM, gamma irradiation dose (Gy): 0
[4] = peposertib concentration 0.313 µM, gamma irradiation dose (Gy): 0
[5] = peposertib concentration 1.25 µM, gamma irradiation dose (Gy): 0
[6] = peposertib concentration 5 µM, gamma irradiation dose (Gy): 0
[7] = peposertib concentration 0.00488 µM, gamma irradiation dose (Gy): 3
[8] = peposertib concentration 0.0195 µM, gamma irradiation dose (Gy): 3
[9] = peposertib concentration 0.0781 µM, gamma irradiation dose (Gy): 3
[10] = peposertib concentration 0.313 µM, gamma irradiation dose (Gy): 3
[11] = peposertib concentration 1.25 µM, gamma irradiation dose (Gy): 3
[12] = peposertib concentration 5 µM, gamma irradiation dose (Gy): 3

Row | Test System | relative cell growth [1] | relative cell growth [2] | relative cell growth [3] | relative cell growth [4] | relative cell growth [5] | relative cell growth [6] | relative cell growth [7] | relative cell growth [8] | relative cell growth [9] | relative cell growth [10] | relative cell growth [11] | relative cell growth [12]
1 | MDAMB435 | 0.989 | 1.03 | 1.02 | 0.924 | 0.721 | 0.207 | – | – | – | – | – | –
2 | MDAMB436 | 1.04 | 0.987 | 0.992 | 0.795 | 0.541 | 0.188 | – | – | – | – | – | –
3 | MDAMB468 | 1.04 | 0.969 | 0.942 | 0.794 | 0.556 | 0.222 | – | – | – | – | – | –
4 | MHHES1 | 0.994 | 0.99 | 0.974 | 0.915 | 0.776 | 0.458 | – | – | – | – | – | –
5 | MIAPACA2 | 1.05 ± 0.024 | 1.07 ± 0.072 | 1.01 ± 0.022 | 0.991 ± 0.07 | 0.891 ± 0.18 | 0.611 ± 0.18 | 0.592 | 0.546 | 0.286 | 0.086 | 0.0368 | 0.0246
6 | MINO | 0.833 | 0.904 | 0.937 | 0.73 | 0.326 | 0.0668 | – | – | – | – | – | –
7 | MT3 | 0.994 | 0.98 | 0.951 | 0.828 | 0.415 | 0.0961 | – | – | – | – | – | –
8 | MV411 | 0.937 | 0.935 | 0.924 | 0.793 | 0.383 | 0.0939 | – | – | – | – | – | –
9 | NCIH82 | 0.982 ± 0.048 | 1.016 ± 0.0085 | 0.988 ± 0.034 | 0.892 ± 0.15 | 0.718 ± 0.24 | 0.422 ± 0.055 | 0.219 | 0.187 | 0.11 | 0.0372 | 0.0097 | 0.000329
10 | NCIH292 | 0.959 ± 0.031 | 1.017 ± 0.0086 | 0.924 ± 0.039 | 0.684 ± 0.078 | 0.33 ± 0.064 | 0.00769 ± 0.042 | 0.526 | 0.511 | 0.357 | 0.21 | 0.0579 | -0.0162
11 | NCIH358M | 1.004 ± 0.01 | 0.975 ± 0.03 | 0.963 ± 0.03 | 0.869 ± 0.1 | 0.695 ± 0.16 | 0.345 ± 0.078 | 0.299 | 0.27 | 0.182 | 0.181 | 0.108 | 0.0702
12 | NCIH460 | 1.05 ± 0.025 | 1.04 ± 0.02 | 1.02 ± 0.025 | 0.934 ± 0.16 | 0.661 ± 0.37 | 0.177 ± 0.11 | 0.302 | 0.384 | 0.181 | 0.0919 | 0.044 | 0.0283
13 | OVCAR3 | 0.907 | 0.952 | 0.919 | 0.739 | 0.372 | 0.0464 | – | – | – | – | – | –
14 | OVCAR4 | 1.03 | 1.01 | 0.983 | 0.875 | 0.858 | 0.633 | – | – | – | – | – | –
15 | PANC1 | 0.969 | 0.974 | 0.956 | 0.92 | 0.741 | 0.411 | – | – | – | – | – | –
16 | PC3 | 1.04 | 1 | 0.971 | 0.781 | 0.532 | 0.262 | – | – | – | – | – | –
17 | PLCPRF5 | 1.01 | 0.969 | 0.974 | 0.898 | 0.807 | 0.586 | – | – | – | – | – | –
18 | RAMOS | 1.06 | 0.987 | 0.927 | 0.736 | 0.377 | 0.129 | – | – | – | – | – | –
19 | RD | 0.929 | 0.97 | 0.942 | 0.94 | 0.826 | 0.455 | – | – | – | – | – | –
20 | RDES | 0.935 | 0.961 | 0.971 | 0.785 | 0.57 | 0.24 | – | – | – | – | – | –
21 | SAOS2 | 0.945 | 0.983 | 0.946 | 0.82 | 0.458 | 0.0757 | – | – | – | – | – | –
22 | SF268 | 1.01 | 0.994 | 0.943 | 0.867 | 0.747 | 0.516 | – | – | – | – | – | –
23 | SF295 | 1.03 | 1.01 | 0.992 | 0.945 | 0.54 | 0.209 | – | – | – | – | – | –
24 | SKBR3 | 0.938 | 1.03 | 1.03 | 0.89 | 0.523 | 0.0447 | – | – | – | – | – | –
25 | SKLMS1 | 0.903 | 0.977 | 0.896 | 0.593 | 0.435 | 0.169 | – | – | – | – | – | –
26 | SKMEL5 | 1.07 | 1.07 | 1.11 | 1.08 | 0.72 | 0.202 | – | – | – | – | – | –
27 | SKMEL28 | 1 | 1.02 | 0.902 | 0.746 | 0.648 | 0.477 | – | – | – | – | – | –
